What was measured:
Conditions in all cases: 72 h
Caco-2 [1] = test: drug sensitivity score (DSS) for viability; higher = more toxic; extreme values may be limits of the assay
Calu-3 [2] = test: as above
Vero E6 [3] = test: as above
HepG2 [4] = test: as above
U2OS [5] = test: as above
Caco-2 [6] = test: cell viability relative to DMSO; higher = less toxic
Calu-3 [7] = test: as above
Vero E6 [8] = test: as above
HepG2 [9] = test: as above
U2OS [10] = test: as above
Caco-2 [11] = test: relative viability EC50 (midpoint between 100% and the lowest measured viability); higher = less toxic
Calu-3 [12] = test: as above
Vero E6 [13] = test: as above
HepG2 [14] = test: as above
U2OS [15] = test: as above

Structure (SMILES)	drug sensitivity score (Caco-2 [1])	drug sensitivity score (Calu-3 [2])	drug sensitivity score (Vero E6 [3])	drug sensitivity score (HepG2 [4])	drug sensitivity score (U2OS [5])	cell viability (Caco-2 [6]; 1 nM) [%]	cell viability (Caco-2 [6]; 10 nM) [%]	cell viability (Caco-2 [6]; 100 nM) [%]	cell viability (Caco-2 [6]; 1000 nM) [%]	cell viability (Caco-2 [6]; 10000 nM) [%]	cell viability (Calu-3 [7]; 1 nM) [%]	cell viability (Calu-3 [7]; 10 nM) [%]	cell viability (Calu-3 [7]; 100 nM) [%]	cell viability (Calu-3 [7]; 1000 nM) [%]	cell viability (Calu-3 [7]; 10000 nM) [%]	cell viability (Vero E6 [8]; 1 nM) [%]	cell viability (Vero E6 [8]; 10 nM) [%]	cell viability (Vero E6 [8]; 100 nM) [%]	cell viability (Vero E6 [8]; 1000 nM) [%]	cell viability (Vero E6 [8]; 10000 nM) [%]	cell viability (HepG2 [9]; 1 nM) [%]	cell viability (HepG2 [9]; 10 nM) [%]	cell viability (HepG2 [9]; 100 nM) [%]	cell viability (HepG2 [9]; 1000 nM) [%]	cell viability (HepG2 [9]; 10000 nM) [%]	cell viability (U2OS [10]; 1 nM) [%]	cell viability (U2OS [10]; 10 nM) [%]	cell viability (U2OS [10]; 100 nM) [%]	cell viability (U2OS [10]; 1000 nM) [%]	cell viability (U2OS [10]; 10000 nM) [%]	relative viability EC50 (Caco-2 [11]) [µM]	relative viability EC50 (Calu-3 [12]) [µM]	relative viability EC50 (Vero E6 [13]) [µM]	relative viability EC50 (HepG2 [14]) [µM]	relative viability EC50 (U2OS [15]) [µM]
CC(=O)SC[C@@H](Cc1ccccc1)C(=O)NCC(=O)OCc1ccccc1 (racemic) [racecadotril]	0	0	0	0.6	0	94.4	95.7	99.7	92.6	122	92.8	96.7	95.5	105	108	105	99.3	94.1	101	109	105	101	88.8	89.7	102	101	96.8	97.4	98.9	102	> 10	> 10	> 10	> 10	> 10
COc1cc(N2CCC(N(C)C)CC2)ccc1Nc1ncc(Cl)c(Nc2ccccc2P(C)(C)=O)n1	5.6	10.9	4.1	9.2	8.2	93.9	95.2	94.8	79.4	41.9	97.9	97.2	93.8	51.7	5.6	101	105	103	100	25.6	105	107	92.9	61.3	14.4	98.2	100	102	83.4	0.5	1.37	0.943	3.17	1.11	1.9
CC(=O)c1c(O)cc(C)oc1=O [dehydroacetic-acid]	0	0	0	0	0	101	107	91.9	104	94.9	105	107	98.2	101	101	98	93.6	92.5	101	95.4	100	103	99.9	96.7	103	99.2	101	96.2	103	100	> 10	> 10	> 10	> 10	> 10

Reference: the supplement of paper PMC13380429
